In assay [1] the test system is binding of monoclonal antibody 2G3 to the CS protein P. knowlesi. In words: Inhibition radioimmunoassay: binding of 125I-labelled monoclonal antibody 2G3 to P. knowlesi CS protein. Particulars: for Inhibitory activity on binding of monoclonal antibody 2G3 to CS protein (in words): FIGS. 1, 2 / Table 3. The protocol: (§1) The immunoactivity of the synthetic peptides was evaluated by measuring their ability to inhibit the reaction between the monoclonal anti-CS and the antigen (CS protein). Antigen was purified from sporozoites, as disclosed in the Malaria Vaccine patent application and as also described by Vanderberg, supra, and Zavala, F., et al, supra, 1982, is preferably employed using ^125 I-labeled antibody.
(§2) Competitive inhibition of the antigen-antibody reaction by the thus synthesized peptides was measured by the following radioimmunoassay. P. knowlesi sporozoite CS protein was used as the antigen.
(§3) (a) Preparation of antigen: 3,000 purified P. knowlesi sporozoites (Vanderberg et al., Military Medicine 134:1183, 1969) in 50 μl of phosphate buffered saline (PBS) containing protease inhibitors, were delivered to the bottom of polystyrene (Falcon 3911 plate, B-D and Co., Oxnard, Calif.) microtiter plates, which were sealed with parafilm and frozen at -70° C. for at least ten minutes. The plates were then allowed to defrost slowly at room temperature. This procedure was repeated six times. Then the plates were incubated at 4° C. overnight, and at 56° C. for five minutes. The P. knowlesi extract was then removed from the wells and these were washed three times with PBS containing 1% bovine serum albumin (BSA) and 0.1% NaN3. The wells were then filled with PBS-BSA-NaN3 for a few hours at room temperature.
(§4) All synthetic peptides were dissolved in PBS at a concentration of 10 mM and subsequently diluted serially in PBS-1% BSA/0.1% NaN3. Twenty-five μl of serial dilutions of each peptide were added to the wells coated with antigen. Control wells received only the diluent. Then, 25 μl of the ^125 I-labelled monoclonal antibody (about 5-10ng, 10 ^5 cpm) were added to the wells. The microtiter plates were incubated at 4° C. for 18 hours, washed 5 times with PBS-BSA-NaN3 and then the wells were counted for well-bound antibody. (LKB 1260 Muilti-gamma γ-counter LKB Instruments, Inc., Gaithersburg, Md.). […]

The test system of assay [2] is binding of monoclonal antibody 5H8 to the CS protein P. knowlesi. In words: Inhibition radioimmunoassay: binding of 125I-labelled monoclonal antibody 5H8 to P. knowlesi CS protein. The note with it: summary of FIGS. 1, 3 / Table 3. How it is done:
as §1, §2
(§5) (a) Preparation of antigen: 3,000 purified P. knowlesi sporozoites (Vanderberg et al., Military Medicine 134:1183, 1969) in 50 μl of phosphate buffered saline (PBS) containing protease inhibitors, were delivered to the bottom of polystyrene (Falcon 3911 plate, B-D and Co., Oxnard, Calif.) microtiter plates, which were sealed with parafilm and frozen at -70° C. for at least ten minutes. The plates were then allowed to defrost slowly at room temperature. This procedure was repeated six times. […]
(§6) All synthetic peptides were dissolved in PBS at a concentration of 10 mM and subsequently diluted serially in PBS-1% BSA/0.1% NaN3. […] The microtiter plates were incubated at 4° C. for 18 hours, washed 5 times with PBS-BSA-NaN3 and then the wells were counted for well-bound antibody. […]

Assay [3] concerns binding of radiolabelled 8E11 to the CS protein of P. knowlesi. In words: Inhibition radioimmunoassay: binding of radiolabelled monoclonal antibody 8E11 to P. knowlesi CS protein. How it is done:
as §1, §2, §3, §4

For assay [4], the system named is monoclonal anti-CS / CS protein of P. knowlesi. In words: Reactivity of synthetic peptides with monoclonal anti-CS (antibody not specified). It counts as binding. The note with it: antibody not given; compared with (1-12) or (5-12) where stated. The protocol:
Four monoclonal antibodies (2G3, 5H8, 8B8, and 8E11) were used in immunoactivity testing of synthesized shorter length analogs of the 12-peptide. The purpose was further localization and identification of the epitope contained therein.
After synthesis, cleavage and purification, the peptides were tested for reactivity with monoclonal anti-CS, preferably partially purified. The anti-CS used in these tests were produced by ascites tumor induction using hybridoma cells resulting from the fusion of plasmacytoma cells with spleen cells of a mouse immunized with the parasite, as described by Cochrane, A. H. et al, supra, and as disclosed in the Malaria Vaccine patent application.
The immunoactivity of the synthetic peptides was evaluated by measuring their ability to inhibit the reaction between the monoclonal anti-CS and the antigen (CS protein). […]
Competitive inhibition of the antigen-antibody reaction by the thus synthesized peptides was measured by the following radioimmunoassay. […]
as §6

In assay [5] the test system is monoclonal antibody 2G3 against the surface protein of P. knowlesi. In words: Binding of 125I-labelled tetraeicosapeptide to Sepharose beads bearing monoclonal antibody 2G3. More on the design: species or system mouse. The text has this: (§7) Monoclonal antibodies against surface antigens of sporozoites of the simian malaria parasite Plasmodium knowlesi were produced by fusion of plasmacytoma cells with spleen cells of a mouse immunized witn the parasite as previously described by Cochrane et al., supra., (1982) and described in detail in the Malaria Vaccine patent application. The monoclonal antibodies (four idiotypes: 2G3, 8B8, 5H8 and 8E11 were partially purified from ascites of mice bearing hybridomas by 50% ammonium sulphate precipitation followed by molecular sieve chromatography on Sephadex G-200.
(§8) To determine whether the 24-peptide is recognized by all monoclonal antibodies, 5 mg of purified monoclonal antibodies were bound to 1 ml of CNBr activated Sepharose 4B (Pharmacia Fine Chemicals, Piscataway, N.J., U.S.A.) according to instructions of the manufacturer. The 24 amino acid peptide was radiolabelled with ^125 I with the Boulton-Hunter reagent, to a specific activity of approximately 10^4 cpm/μg. Twenty μl of beads bearing the different antibodies were incubated for 60 minutes at room temperature in the presence of 100 μl of PBS-BSA containing either 1 μg of the radiolabelled peptide alone or radiolabelled peptide in the presence of […] of cold tetraeicosapeptide. The beads were then washed by centrifugation with PBS-BSA and counted in a gamma-counter.

Assay [6] has as its system monoclonal antibody 5H8 against the surface protein of P. knowlesi. In words: Binding of 125I-labelled tetraeicosapeptide to Sepharose beads bearing monoclonal antibody 5H8. More on the design: species or system mouse.
Description: as §7, §8

Assay [7] has as its system monoclonal antibody 8B8 against the surface protein of P. knowlesi. In words: Binding of 125I-labelled tetraeicosapeptide to Sepharose beads bearing monoclonal antibody 8B8. More on the design: species or system mouse.
Description: as §7, §8

Assay [8] concerns monoclonal antibody 8A8 against the surface protein of P. knowlesi. In words: Binding of 125I-labelled tetraeicosapeptide to Sepharose beads bearing monoclonal antibody 8A8. Set-up: species or system mouse.
For assay [9], the system named is monoclonal antibody (3D11) against the surface protein of P. berghei. In words: Binding of 125I-labelled tetraeicosapeptide to control beads bearing monoclonal antibody 3D11. How it is done: as §8
The subject of assay [10] is monoclonal antibody 8E11. In words: Binding of 125I-labelled tetraeicosapeptide to Sepharose beads bearing monoclonal antibody 8E11. More on the design: species or system mouse. Particulars: other experiments, not shown.
Description: as §7, §8

Assay [11] relates to monoclonal antibody 6B8. In words: Binding of 125I-labelled tetraeicosapeptide to Sepharose beads bearing monoclonal antibody 6B8. More on the design: species or system mouse. The note with it: other experiments, not shown.
Description: as §7, §8

Assay [12] concerns binding of monoclonal antibody 2G3 to the CS protein P. knowlesi. The note with it: cited from earlier work.
The test system of assay [13] is binding of monoclonal antibody 8B8 to the CS protein P. knowlesi. In words: Inhibition radioimmunoassay: binding of 125I-labelled monoclonal antibody 8B8 to P. knowlesi CS protein. Particulars: text summary of FIG. 4 / Table 3. How it is done: as §1, §2, §5, §6
[14] abbreviates: 2G3 beads in PBS-BSA + excess of cold tetraeicosapeptide.
Where [15] appears, read: 5H8 beads in PBS-BSA + excess of cold tetraeicosapeptide.
[16] abbreviates: 8B8 beads in PBS-BSA + excess of cold tetraeicosapeptide.
The mark [17] stands for this setting: 8A8 beads in PBS-BSA + excess of cold tetraeicosapeptide.
[18] abbreviates: control 3D11 beads suspended in PBS-BSA.

pIC50: −log10 of the molar value. “Also recorded” adds a separate entry of the source. No end group written: not given here.

In the case of “H-QAQGDGANAGQPQAQGDGANAGQP-NH2 [Peptide 1-24]”, the “Inhibitory activity on binding of monoclonal antibody 2G3 to CS protein (in words)” value in assay [1] is “almost identical”. Further, in assay [2], the “Inhibitory activity on binding of monoclonal antibody 5H8 to CS protein (in words)” value is on record as “almost identical”. For the same substance, the “Inhibition of binding of antibody 8E11 to CS protein (in words)” value in assay [3] is recorded as “inhibited”. For the same substance, in [3] (FIG. 1, read-out: Concentration giving about 50% inhibition of binding of radiolabelled 8E11 to the CS protein), the pIC50 was approximately 5.00. For the same substance, the “Reactivity with monoclonal anti-CS (in words)” value in assay [4] is on record as “reacted”. In addition, the “% of input of radiolabelled tetraeicosa peptide that bound to the beads” value in assay [5] (setting [14]) is recorded as 0.2 % of input; in [5] (2G3 beads suspended in PBS-BSA), 25.8 % of input; in [6] (setting [15]), 0.2 % of input; in [6] (5H8 beads suspended in PBS-BSA) it was 19.7 % of input; in [7] (setting [16]), 0.2 % of input; in assay [7] (8B8 beads suspended in PBS-BSA) it was 27.8 % of input. Moreover, the “% of input of radiolabelled tetraeicosa peptide that bound to the beads” value in assay [8] (setting [17]) is reported as 0.2 % of input; in assay [8] (8A8 beads suspended in PBS-BSA), 10.3 % of input; in assay [9] (setting [18]), 0.2 % of input. Further, the “cpm of radiolabelled tetraeicosa peptide that bound to the beads” value stood at 25 cpm in assay [5] (setting [14]); 2922 cpm in [5] (2G3 beads suspended in PBS-BSA, 1 μg radiolabelled peptide); 20 cpm in [6] (setting [15]); 2332 cpm in assay [6] (5H8 beads suspended in PBS-BSA); 20 cpm in assay [7] (setting [16]); 3155 cpm in assay [7] (8B8 beads suspended in PBS-BSA). Further, the “cpm of radiolabelled tetraeicosa peptide that bound to the beads” value in assay [8] (setting [17]) came to 25 cpm; in [8] (8A8 beads suspended in PBS-BSA), 1092 cpm; in assay [9] (control 3D11 beads in PBS-BSA + excess of cold tetraeicosapeptide), 0 cpm; in [9] (setting [18]) it was 25 cpm. In addition, the “Binding of radiolabelled (1-24) to beads bearing 8E11 (in words)” value in assay [10] is given as “Analogous results”. The “Binding of radiolabelled (1-24) to beads bearing 6B8 (in words)” value in assay [11] was “Analogous results”. For the same substance, the “Reactivity with monoclonal anti-CS 2G3 (previous work)” value in [12] was “interacted simultaneously with two molecules of 2G3”.
For the substance “QAQGDGANAGQP-NH2 [Peptide 1-12, NH2 Gln-Ala-Gln-Gly-Asp-Gly-Ala-Asn-Ala-Gly-Gln-ProCONH2]”, the “Inhibitory activity on binding of monoclonal antibody 8B8 to CS protein (in words)” value in [13] was “strongly inhibitory”. Moreover, in assay [1], the “Inhibitory activity on binding of monoclonal antibody 2G3 to CS protein (in words)” value is “almost identical; also recorded: strongly inhibitory”. For the same substance, the “Molar concentration of peptide (×5) necessary for 50% inhibition of binding of monoclonal antibody 2G3” value in assay [1] (head prints (×5), radiolabeled 2G3, CS protein P. knowlesi immobilized on wells, 4° C. for 18 hours) is 10^-13 Molar. In assay [2], the “Inhibitory activity on binding of monoclonal antibody 5H8 to CS protein (in words)” value is on record as “almost identical; also recorded: strongly inhibitory”. In [3] (at a concentration of 10^-2 M), the “Inhibitory effect on binding of 8E11 to CS protein at a fixed concentration” value is given as “no appreciable inhibitory effect”. For the same substance, the “Reactivity with monoclonal anti-CS (in words)” value in assay [4] is recorded as “very efficient inhibitors”. For the same substance, the “Reactivity with monoclonal anti-CS 2G3 (previous work)” value in [12] is “very effectively inhibited”.

The values above are taken from patent US4769235A, “Immunodominant epitope of the circumsporozoite surface protein” (New York University, priority 1984, dated 1988).
